Laboratory results from patent US20240368232A1, “ANTIVIRAL LARAZOTIDE DERIVATIVES” (priority 2021, published 2024).
Where two headings read alike, the source gives them in different places. Square brackets hold non-standard residues; d marks the D form. Peptide text beside a SMILES is read from it.

Experiments:
[1] = test system: SARS-COV-2 SA (RG) strain
[2] = test system: SARS-COV-2 SA (RG) strain; assay: microbe, parasite or virus in culture; conditions: Severe acute respiratory syndrome coronavirus 2, Vero, read-out: Antiviral activity EC50 SA (RG) strain Vero cells

SMILES | EC50 [1] | EC50 [2]
CC(=O)NCC(=O)N[C@H](Cc1ccccc1)C(=O)N[C@H](C=O)Cc1c[nH]cn1 [TRIP 5] (Ac-Gly-[dF]-His-aldehyde) | > 100000 nM | 
CCC(CC)COC(=O)[C@H](C)N[P@](=O)(OC[C@H]1O[C@@](C#N)(c2ccc3c(N)ncnn23)[C@H](O)[C@@H]1O)Oc1ccccc1 [Remdesivir] |  | 840 nM
